These results are taken from patent publication US20220152080A1 (priority 2019, published 2022).

In test [1] the test system is vRNP nuclear export (viral NP protein), WSN/H1N1. It counts as cell-based, influenza A virus.
Test [2] relates to RanBP1 (Crm1 export pathway). Format: cell-based.
A further test has as its system GSK-3β. It counts as cell-based.
Test [3] deals with RSK1. Particulars: in vitro; cited from earlier work.
Test [4] relates to WSN/H1N1, PR8M/H1N1, pdm09Hamburg/H1N1, Panama/H3N2, KAN-1/H5N1, Anhui/H7N9, SC35M/H7N7, B/Lee. Format: cell-based, influenza A and B viruses. Particulars: 15 μM, 24 h p.i., MOI 0.01, A549 or MDCKII cells, DMSO control = 100%.
Test [5] has as its system vRNPs of WSN/H1N1, PR8M/H1N1, pdm09Hamburg/H1N1, Panama/H3N2, KAN-1/H5N1, Anhui/H7N9, SC35M/H7N7, B/Lee. It counts as cell-based, influenza A and B viruses. Particulars: 15 μM, treated 3 h p.i., fixed 9 h or 12 h p.i., MOI 5.
Another test relates to WSN/H1N1. Format: cell-based, influenza A virus. As to conditions: read-out: EC50 (progeny virus titers).
A further test relates to vRNP-M1 interaction. Format: cell-based, influenza A virus.
For test [6], the system named is ERK1/2. It counts as cell-based.
A further test relates to RSK substrate p140. Particulars: not that of RSK or RSK upstream kinases even at 100 μM; cited from earlier work.
Test [7] concerns the target p90 ribosomal S6 kinase (N-terminal kinase domain). Particulars: cited from earlier work.
The test system of a further test is MCF-7. As to conditions: cited from earlier work.
Test [8] deals with ERK1/2. Kind of test: TPA stimulation: nuclear localization of ERK1/2 in A549 cells. It counts as cell-based. Particulars: A549, TPA-stimulated, 1 h; unstimulated 27.99%±1.97%. On the procedure: (§1) (A,C) A549 cells were stimulated with TPA (200 nM). The solvent DMSO served as negative control. After 1 h the cells were fixed and cellular localization of RSK2 or ERK1/2 (Alexa-561) was analyzed by epifluorescence microscopy. Nuclei were stained with Dapi. Dashed squares indicate zoom-in areas. Shown are representative epifluorescence microscopy pictures of single focal planes. Results of one out of three independent experiments are shown. Scale bar represents 50 μm.(B,D) Quantification of the cellular localization of RSK2 or ERK1/2 from (A,C). 15 epifluorescence microscopy pictures of each sample were analyzed in terms of the RSK2 localization using the ImageJ “Intensity Ratio Nuclei Cytoplasm Tool”. Results are depicted as means±SD of three independent experiments. Statistical significance was analyzed by unpaired t-test with Welch's correction (**p≤0.01).
(§2) To exclude unspecific staining of RSK2 and ERK1/2 the Raf/MEK/ERK-pathway was stimulated with TPA. It is known that the incubation with TPA leads to the activation of the Raf/MEK/ERK-pathway resulting in the nuclear localization of ERK1/2 and RSKs within minutes after the stimulation. […] After 1 h the cells were fixed and cellular localization of RSK2 or ERK1/2 (Alexa-561) was analyzed by epifluorescence microscopy. […] Statistical significance was analyzed by unpaired t-test with Welch's correction (**p≤0.01). […]

The subject of another test is RSK2. Kind of test: TPA stimulation: nuclear localization of RSK2 in A549 cells. Particulars: A549, TPA-stimulated, 1 h; unstimulated 29.37%±1.15%. Format: cell-based. On the procedure:
as §1, §2

In test [9] the test system is RSK1. Format: cell-based.
In test [10] the test system is viral NP protein (Serine residues 269 and 392). Format: cell-based, influenza A virus.

As usually defined, the IC50 is the concentration that gives 50% inhibition. By EC50 is commonly meant the midpoint of the concentration-response curve. One may read the Ki as a dissociation constant, usually derived from enzyme kinetics or from competition with a known ligand.

Consider `CCC(=C/[C@H](C)C/C=C/C(C)=C/[C@@H](C)C(=O)[C@@H](C)[C@H](O)[C@@H](C)C/C(C)=C/C(=O)O)/C=C/[C@@H]1OC(=O)C=C[C@@H]1C` [Leptomycin B], for which the “nuclear retention of the viral NP protein (vRNPs)” value (from here on “nuclear retention … (vRNPs)”) in [1] is “highest retention rates”. In test [2], the “nuclear retention of RanBP1” value is reported as “nuclear retention of RanBP1 was only detected for the Leptomycin B treated samples”.
For the compound `CC(C)CCN1c2nc(Nc3cc(F)c(O)c(F)c3)ncc2N(C)C(=O)C1C` (centres unmarked) [BI-D1870], the GSK-3ß phosphorylation result with GSK-3β is on record as “concentration dependent reduction”. The “nuclear retention … (vRNPs)” value in test [1] is on record as “negatively affected the vRNP nuclear export”. The 50% inhibitory concentration (IC50) in the test on RSK1 [3] is […]. In addition, the “reduction of progeny viral titers, all tested viruses” value in test [4] lay in the range of 80 to 90%. The “nuclear retention of newly synthesized vRNPs, all tested viruses” value in test [5] is on record as “nuclear retention of newly synthesized vRNPs”. Moreover, the EC50 in the test on WSN/H1N1 came to 2.81 µM. The “amount of M1 co-purified with Strep-PB2-vRNPs” value with vRNP-M1 interaction was “decreased amount of M1”. Further, in the test with ERK1/2 [6], the ERK1/2 phosphorylation state entry is recorded as “induction of the ERK1/2 phosphorylation state”.
For the compound `CC(=O)O[C@@H]1[C@@H](OC(C)=O)[C@@H](O)[C@H](Oc2c(-c3ccc(O)cc3)oc3cc(O)cc(O)c3c2=O)O[C@H]1C` [SL0101-1], the “nuclear retention … (vRNPs)” value in test [1] was “nuclear retention”. Also, the “block of PDB-induced cellular phosphorylation of p140” value in the test with RSK substrate p140 is “specifically block”. The inhibition constant Ki in [7] (selective, reversible, ATP-competitive) was 1 µM. The concentration for half-maximal inhibition (IC50) in test [7] (with 10 μM ATP, read-out: IC50 RSK kinase activity) is 0.089 µM. For the same compound, the “inhibition of proliferation of MCF-7” value in the test on MCF-7 is listed as “inhibit the proliferation of MCF-7”. The “nuclear retention of RanBP1” value in test [2] is on record as “not detected”. Besides, the EC50 in the test on WSN/H1N1 turned out to be 10.5 µM.
`O=C(O)c1ccc(F)c(F)c1Nc1ccc(I)cc1Cl` [ATR-002]: the “nuclear retention … (vRNPs)” value in [1] is on record as “nuclear retention”. Besides, the “nuclear retention of RanBP1” value in [2] is recorded as “not detected”.
With `CCCCCCCCCCCCCC(=O)O[C@@H]1[C@@H](C)[C@@]2(O)[C@@H](C=C(CO)C[C@]3(O)C(=O)C(C)=C[C@@H]23)[C@@H]2C(C)(C)[C@]12OC(C)=O` [TPA], the “nuclear accumulation of ERK1/2” value with ERK1/2 [8] is listed as 48.02%±2.25%. For the same compound, the “nuclear accumulation of RSK2” value in the test with RSK2 is given as 34.89%±0.67%.
As to `O=C(NOCC1CC1)c1ccc(F)c(F)c1Nc1ccc(I)cc1Cl` [CI-1040], in the test on RSK1 [9], the “virus induced RSK activation” value was “blocked”. Also, in [10], the “phosphorylation state of NP Serine residues 269 and 392” value is “decreased phosphorylation state”.
